Entries after “also recorded” stand apart in the source; their conditions may differ.
Tests used:
[1] = tested on: YopE secretion by attenuated Y. pestis; experiment: microbe, parasite or virus in culture; type: cell-based, Yersinia pestis KIM19; settings: for inhibition at 10 µM / inhibition at 100 µM: Yersinia pestis, 1 h; for inhibition at 10 µM: read-out: Inhibition of YopE secretion at 10 µM; for inhibition at 100 µM: read-out: Inhibition of YopE secretion at 100 µM
[2] = tested on: HeLa cells incubated with attenuated Y. pestis KIM19 strain
[3] = in vitro; settings: human, hela cells
[4] = tested on: HeLa cells incubated with attenuated Y. pestis KIM19 strain; experiment: cells; settings: Homo sapiens, 3 h; for inhibition at 10 µM: read-out: Inhibition of HeLa cell toxicity by attenuated Y. pestis at 10 µM; for inhibition at 50 µM: read-out: Inhibition of HeLa cell toxicity by attenuated Y. pestis at 50 µM
[5] = tested on: Attenuated Y. pestis KIM19 strain; type: cell-based, Yersinia pestis
[6] = tested on: human HeLa cells

Compound	Inhibition of YopE secretion (in words) [1]	Effectiveness in the cell infection model (in words) [2]	cytotoxicity at 100 µM [3] [%]	inhibition at 10 µM [4] [%]	inhibition at 50 µM [4] [%]	Inhibition of YopE secretion at 50 µM or lower concentration [1]	inhibition at 10 µM [1] [%]	inhibition at 100 µM [1] [%]	Effect on growth rate of Y. pestis in bacterial medium (in words) [5]	Cytotoxicity against HeLa cells, inhibition at 100 µM [6] [%]
CC(=O)Nc1ccc(-c2csc(NC(=O)c3sc4nc(C)cc(C)c4c3C)n2)c(F)c1 [Compound 7146]	poor inhibitors of the YopE secretion	–	–	–	–	–	–	–	–	–
O=C(CNC(=O)c1sc2ccccc2c1Cl)Nc1ccc(-n2cnc3ccccc32)cc1 [Compound 7832]	–	only moderately effective	0	0	30	at least 50%	≥ 95	≥ 80	none of them had a significant effect on the growth rate; also recorded: minimal bacterial growth inhibition	–
Cc1ccc(S(=O)(=O)N2CCCN(c3ccc([N+](=O)[O-])c4nonc34)CC2)cc1 [Compound 1504]	poor inhibitors of the YopE secretion	–	–	–	–	–	–	–	–	–
O=C(Cc1csc(NC(=O)c2ccccc2)n1)Nn1cnc2scc(-c3ccco3)c2c1=O [Compound 7086]	–	only moderately effective	26 ± 11	0	20	at least 50%	≥ 95	≥ 80	small bacteriostatic effect; also recorded: some bacteriostatic effect; also recorded: slight inhibition of bacterial growth	–
CC(=O)Nc1ccc(N2C(=O)c3ccc(C(=O)OC(C)C(=O)c4c[nH]c5ccccc45)cc3C2=O)cc1 (stereo not shown) [Compound 7812]	–	only moderately effective	0	0	0	at least 50%	≥ 95	≥ 80	none of them had a significant effect on the growth rate; also recorded: minimal bacterial growth inhibition	–
Methanol [reference compound]	–	–	–	–	–	–	–	–	–	100±1
CNC(=O)C1CN(C(=O)COC(=O)c2cc(-c3cccs3)nc3ccccc23)c2ccccc2O1 (stereo not shown) [Compound 9652]	–	–	–	–	–	–	–	30	–	–
